For `CCCCOCCOc1ccc(-c2ccc3c(c2)C=C(C(=O)Nc2ccc([S+]([O-])Cc4nncn4CC(C)C)cc2)CCN3CCC)cc1` (stereo not drawn) [Compound 33, 7-[4-(2-butoxyethoxy)phenyl]-N-[4-((4-isobutyl-4H-1,2,4-triazol-3-yl)methylsulfinyl]phenyl]-1-propyl-2,3-dihydro-1H-1-benzazepine-4-carboxamide], the melting point was 186 to 190 °C (dec.).

Turning to `CCCCOCCOc1ccc(-c2ccc3c(c2)C=C(C(=O)Nc2ccc(SCc4cncn4CC(N)=O)cc2)CCN3CC(C)C)cc1` [Compound 429, N-[4-[[[1-(2-amino-2-oxoethyl)-1H-imidazol-5-yl]methyl]thio]phenyl]-7-[4-(2-butoxyethoxy)phenyl]-1-isobutyl-2,3-dihydro-1H-1-benzazepine-4-carboxamide], the melting point lay in the range of 152 to 154 °C.

Turning to `CCCCOCCOc1ccc(-c2ccc3c(c2)C=C(C(=O)Nc2ccc([C@H](O)c4cccc[n+]4[O-])cc2)CCN3S(C)(=O)=O)cc1` [Compound 94, 7-[4-(2-butoxyethoxy)phenyl]-N-[4-[(S)-hydroxy(1-oxidopyridin-2-yl)methyl]phenyl]-1-methanesulfonyl-2,3-dihydro-1H-1-benzazepine-4-carboxamide], the melting point lay in the range of 118 to 120 °C.

With `CCCCOCCOc1ccc(-c2ccc3c(c2)C=C(C(=O)Nc2ccc([C@H](O)c4ccccn4)cc2)CCN3C=O)cc1` [Compound 75, 7-[4-(2-butoxyethoxy)phenyl]-1-formyl-N-[4-[(S)-hydroxy(2-pyridyl)methyl]phenyl]-2,3-dihydro-1H-1-benzazepine-4-carboxamide], the melting point was in the range of 130 to 134 °C.

In turn, `CCCCOCCOc1ccc(-c2ccc3c(c2)C=C(C(=O)Nc2ccc([S+]([O-])CCn4cnnc4)cc2)CCN3CC(C)C)cc1` (stereo not drawn) [Compound 155, 7-[4-(2-butoxyethoxy)phenyl]-N-[4-(4H-1,2,4-triazol-4-ylethylsulfinyl)phenyl]-1-isobutyl-2,3-dihydro-1H-benzazepine-4-carboxamide] gave a melting point of 168 to 170 °C.

As to `CCCCOCCOc1ccc(-c2ccc3c(c2)C=C(C(=O)Nc2ccc(C[S+]([O-])c4nncn4C)cc2)CCN3CC(C)C)cc1` (stereo not drawn) [Compound 118, 7-[4-(2-butoxyethoxy)phenyl]-N-[4-(4-methyl-4H-1,2,4-triazol-3-ylsulfinylmethyl)phenyl]-1-isobutyl-2,3-dihydro-1H-1-benzazepine-4-carboxamide], the melting point lay within 87 to 89 °C.

As for `CCCCOCCOc1ccc(-c2ccc3c(c2)C=C(C(=O)Nc2ccc(C(O)c4cc(C)cc[n+]4[O-])c(OCC)c2)CCN3)cc1` (stereo not drawn) [Compound 11, 7-[4-(2-butoxyethoxy)phenyl]-N-[3-ethoxy-4-[hydroxy(4-methyl-1-oxidopyridin-2-yl)methyl]phenyl]-2,3-dihydro-1H-1-benzazepine-4-carboxamide], the melting point lay in the range of 110 to 115 °C.

As to `CCCCOCCOc1ccc(-c2ccc3c(c2)C=C(C(=O)Nc2ccc([C@H](O)c4cccc[n+]4[O-])cc2)CCN3Cc2nccs2)cc1` [Compound 86, 7-[4-(2-butoxyethoxy)phenyl]-N-[4-[(S)-hydroxy(1-oxidopyridin-2-yl)methyl]phenyl]-1-(thiazol-2-ylmethyl)-2,3-dihydro-1H-1-benzazepine-4-carboxamide], the melting point fell in the range of 164 to 165 °C.

The compound `CCCCOCCOc1ccc(-c2ccc3c(c2)C=C(C(=O)Nc2ccc([C@H](O)c4cccc[n+]4[O-])cc2)CCN3C=O)cc1` [Compound 77, 7-[4-(2-butoxyethoxy)phenyl]-1-formyl-N-[4-[(S)-hydroxy(1-oxidopyridin-2-yl)methyl]phenyl]-2,3-dihydro-1H-1-benzazepine-4-carboxamide] showed a melting point of 120 to 125 °C.

Take `CCCCOCCOc1ccc(-c2ccc3c(c2)C=C(C(=O)Nc2ccc([S+]([O-])Cc4nncn4CCC)nc2)CCN3CC(C)C)cc1` (stereo not drawn) [Compound 54, 7-[4-(2-butoxyethoxy)phenyl]-1-isobutyl-N-[2-(4-propyl-4H-1,2,4-triazol-3-yl)methylsulfinylpyridin-5-yl]-2,3-dihydro-1H-1-benzazepine-4-carboxamide]: the melting point lay within 135 to 138 °C.

For the compound `CCCCOCCOc1ccc(-c2ccc3c(c2)C=C(C(=O)Nc2ccc(C(O)c4cccc[n+]4[O-])c(C)c2)CCN3)cc1` (stereo not drawn) [Compound 7, 7-[4-(2-butoxyethoxy)phenyl]-N-[4-[hydroxy(1-oxidopyridin-2-yl)methyl]-3-methylphenyl]-2,3-dihydro-1H-1-benzazepine-4-carboxamide], the melting point is 179 to 182 °C (dec.).

Consider `CCCCOCCOc1ccc(-c2ccc3c(c2)C=C(C(=O)Nc2ccc(C(O)c4cccc(C)[n+]4[O-])cc2)CCN3)cc1` (stereo not drawn) [Compound 97, 7-[4-(2-butoxyethoxy)phenyl]-N-[4-[hydroxy(6-methyl-1-oxidopyridin-2-yl)methyl]phenyl]-2,3-dihydro-1H-1-benzazepine-4-carboxamide], for which the melting point is 175 to 177 °C.

Regarding `CCCCOCCOc1ccc(-c2ccc3c(c2)C=C(C(=O)Nc2ccc(C(O)c4ccc(Cl)cn4)cc2)CCN3C(=O)C(F)(F)F)cc1` (stereo not drawn) [Compound 107, 7-[4-(2-butoxyethoxy)phenyl]-N-[4-[hydroxy(5-chloropyridin-2-yl)methyl]phenyl]-1-trifluoroacetyl-2,3-dihydro-1H-1-benzazepine-4-carboxamide], the melting point was 144 to 146 °C.

`CCCCOCCOc1ccc(-c2ccc3c(c2)C=C(C(=O)Nc2ccc([S+]([O-])Cc4nncn4CCCC)cc2)CCN3CCC)cc1` (stereo not drawn) [Compound 145, 7-[4-(2-butoxyethoxy)phenyl]-N-[4-(4-n-butyl-4H-1,2,4-triazol-3-ylmethylsulfinyl)phenyl]-1-propyl-2,3-dihydro-1H-benzazepine-4-carboxamide] returned a melting point of 157 to 160 °C.

Take `CCCCOCCOc1ccc(-c2ccc3c(c2)C=C(C(=O)Nc2ccc([C@H](O)c4cccc[n+]4[O-])cc2)CCN3Cc2ccccc2)cc1` [Compound 90, 1-benzyl-7-[4-(2-butoxyethoxy)phenyl]-N-[4-[(S)-hydroxy(1-oxidopyridin-2-yl)methyl]phenyl]-2,3-dihydro-1H-1-benzazepine-4-carboxamide]: the melting point fell in the range of 89 to 93 °C.

By melting point is commonly meant the temperature of the solid-liquid transition.

Source of the values: patent US7262185B2, “Benzazepine derivative, process for producing the same, and use” (Takeda Chemical Industries Ltd., priority 2001, dated 2007).
